Laboratory results published in patent publication US20230346961A1, “GLP-1 AND GIP RECEPTOR CO-AGONISTS” (Novo Nordisk A/S, priority 2020, published 2023).

Target: human GLP-1 receptor (Homo sapiens, UniProt P43220)
Assay: cell-based
Conditions: hGLP-1R

Chain of human GLP-1 receptor (P43220 24-463): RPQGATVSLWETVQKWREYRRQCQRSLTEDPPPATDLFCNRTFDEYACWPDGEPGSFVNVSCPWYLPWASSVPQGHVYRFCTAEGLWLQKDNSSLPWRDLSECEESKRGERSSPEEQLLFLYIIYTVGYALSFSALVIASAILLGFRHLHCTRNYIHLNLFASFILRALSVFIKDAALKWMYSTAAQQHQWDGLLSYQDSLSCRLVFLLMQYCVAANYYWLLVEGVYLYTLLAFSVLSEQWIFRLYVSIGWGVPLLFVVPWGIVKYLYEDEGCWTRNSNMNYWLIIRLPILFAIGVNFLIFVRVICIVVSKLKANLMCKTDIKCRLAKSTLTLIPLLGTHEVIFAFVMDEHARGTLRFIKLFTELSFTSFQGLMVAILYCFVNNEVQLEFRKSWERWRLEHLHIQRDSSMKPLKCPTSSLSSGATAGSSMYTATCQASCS

Compound	EC50 (CRE Luc 0% HSA EC50, 0% HSA) [nM]	EC50 (CRE Luc 1% HSA EC50, 1% HSA) [nM]
CC[C@H](C)[C@H](NC(=O)[C@H](CO)NC(=O)[C@H](Cc1ccc(O)cc1)NC(=O)[C@H](CC(=O)O)NC(=O)[C@H](CO)NC(=O)[C@@H](NC(=O)[C@H](Cc1ccccc1)NC(=O)[C@@H](NC(=O)CNC(=O)[C@H](CCC(=O)O)NC(=O)C(C)(C)NC(=O)[C@@H](N)Cc1ccc(O)cc1)[C@@H](C)O)[C@@H](C)O)C(=O)N[C@@H](Cc1ccc(O)cc1)C(=O)N[C@@H](CC(C)C)C(=O)N[C@@H](CC(=O)O)C(=O)N[C@@H](CCCCN)C(=O)N[C@@H](CCC(N)=O)C(=O)N[C@@H](C)C(=O)N[C@@H](C)C(=O)NC(C)(C)C(=O)N[C@@H](CCC(=O)O)C(=O)N[C@@H](Cc1ccccc1)C(=O)N[C@H](C(=O)N[C@@H](CC(N)=O)C(=O)N[C@@H](Cc1c[nH]c2ccccc12)C(=O)N[C@@H](CC(C)C)C(=O)N[C@@H](CC(C)C)C(=O)N[C@@H](C)C(=O)NCC(=O)NCC(=O)N1CCC[C@H]1C(=O)N[C@@H](CO)C(=O)N[C@@H](CO)C(=O)NCC(=O)N[C@@H](C)C(=O)N1CCC[C@H]1C(=O)N1CCC[C@H]1C(=O)N1CCC[C@H]1C(=O)N[C@@H](CO)C(=O)N[C@@H](CCCCNC(=O)COCCOCCNC(=O)COCCOCCNC(=O)CC[C@H](NC(=O)CCCCCCCCCCCCCCCCC(=O)O)C(=O)O)C(N)=O)C(C)C [Compound 3]	0.0134	0.606
CC[C@H](C)[C@H](NC(=O)[C@H](CO)NC(=O)[C@H](Cc1ccc(O)cc1)NC(=O)[C@H](CC(=O)O)NC(=O)[C@H](CO)NC(=O)[C@@H](NC(=O)[C@H](Cc1ccccc1)NC(=O)[C@@H](NC(=O)CNC(=O)[C@H](CCC(=O)O)NC(=O)C(C)(C)NC(=O)[C@@H](N)Cc1ccc(O)cc1)[C@@H](C)O)[C@@H](C)O)C(=O)N[C@@H](Cc1ccc(O)cc1)C(=O)N[C@@H](CC(C)C)C(=O)N[C@@H](CC(=O)O)C(=O)N[C@@H](CCCCN)C(=O)N[C@@H](CCC(N)=O)C(=O)N[C@@H](C)C(=O)N[C@@H](C)C(=O)NC(C)(C)C(=O)N[C@@H](CCC(=O)O)C(=O)N[C@@H](Cc1ccccc1)C(=O)N[C@H](C(=O)N[C@@H](CC(N)=O)C(=O)N[C@@H](Cc1c[nH]c2ccccc12)C(=O)N[C@@H](CC(C)C)C(=O)N[C@@H](CC(C)C)C(=O)N[C@@H](C)C(=O)NCC(=O)NCC(=O)N1CCC[C@H]1C(=O)N[C@@H](CO)C(=O)N[C@@H](CO)C(=O)NCC(=O)N[C@@H](C)C(=O)N1CCC[C@H]1C(=O)N1CCC[C@H]1C(=O)N1CCC[C@H]1C(=O)N[C@@H](CO)C(=O)N[C@@H](CCCCNC(=O)CCCCCCCCCCCCCCCCC(=O)O)C(N)=O)C(C)C [Compound 2]	0.0675	0.439
